Reference: patent US4965280A, “Antifungal carbinols” (E. I. Du Pont de Nemours and Company, priority 1989, dated 1990)
In brackets after ≈: the same amount, converted by molar mass. Where two headings read alike, the source gives them in different places.

How the values were obtained:
[1] = tested on: Candida albicans ATCC 11651; experiment: In vivo systemic Candida infection in mice, primary assay; set-up: species or system Candida albicans; CF-1 female mice; settings: Candida albicans, 150 mg/kg per day, read-out: % Survival
Method in brief: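 CF-1 female mice (20 g, 10 per group) were infected IV with 0.2 ml of 1×10^7/ml C. albicans ATCC 11651, then given test compound subcutaneously at 50 or 150 mg/kg/day at 1 and 6 h post-infection and once daily for three more days. Survival was followed for 21 days against infected untreated mice; ≥70% protection at 14 days was scored active.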

[2] = tested on: Venturia inaequalis; experiment: Example A apple scab; type: in vivo; settings: read-out: disease control rating, Ex. A
Method in brief: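 Apple seedlings receive a run-off spray of compound suspended at 100 or 20 ppm. The spray liquid is purified water holding 250 ppm TREM 014, a polyhydric alcohol ester surfactant, plus acetone at 6% of final volume as the solvent.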

[3] = tested on: Cercosporidium personatum; experiment: Example B Peanut Late Leafspot; type: in vivo; settings: Nothopassalora personata, read-out: disease control rating, Ex. B
Method in brief: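 Each compound is first taken up in acetone, which makes up 6% of the final spray volume. It is then suspended in purified water with 250 ppm TREM 014 at 100 or 20 ppm. Seedlings of peanut are sprayed until run-off.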

[4] = tested on: Botrytis cinerea; experiment: Example C bean grey mold; type: in vivo; settings: Botrytis cinerea, 24 h, read-out: disease control rating, Ex. C
Method in brief: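 Compound is first dissolved in acetone, the acetone making up 6% of the final volume. The solution is then suspended in purified water with 250 ppm of the polyhydric alcohol ester surfactant TREM 014 to give 100 or 20 ppm. Seedlings of broad bean receive this spray until liquid runs off.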

[5] = tested on: Erysiphe graminis f. sp. tritici; experiment: Example D wheat powdery mildew; type: in vivo; settings: Blumeria graminis, 144 h, read-out: disease control rating, Ex. D
Method in brief: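 Wheat seedlings receive a run-off foliar spray of compound suspended in purified water at 100 or 20 ppm. The carrier holds 250 ppm TREM 014 plus acetone amounting to 6% of final volume.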

[6] = tested on: Pyricularia oryzae; experiment: whole plant or invertebrate; type: in vivo; settings: Pyricularia oryzae, 120 h; for pest or weed control at 100 ppm: read-out: disease control rating, Ex. E, 100 PPM
[7] = tested on: Rhizoctonia solani; experiment: Example F rice sheath blight; type: in vivo; settings: Rhizoctonia solani, 144 h, read-out: disease control rating, Ex. F
Method in brief: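 Rice seedlings receive a run-off spray of compound suspended at 100 or 20 ppm. The carrier is purified water containing 250 ppm of a polyhydric alcohol ester surfactant, with acetone making up 6% of the final volume.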

[8] = tested on: Puccinia recondita; experiment: Example G wheat leaf rust; type: in vivo; settings: read-out: disease control rating, Ex. G
[9] = tested on: Phytophthora infestans; experiment: whole plant or invertebrate; type: in vivo; settings: Phytophthora infestans, in Solanum lycopersicum, read-out: disease control rating, Ex. H, 100 PPM
[10] = tested on: Plasmorpara viticola; experiment: Example I grape downy mildew; type: in vivo; settings: read-out: disease control rating, Ex. I
Method in brief: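 Applied as a foliar spray to run-off on grape seedlings, the compounds were formulated at 100 or 20 ppm in water containing 250 ppm TREM 014, with acetone making up 6% of the volume.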

[11] = tested on: Pythium aphanadermatum; experiment: Example J cucumber damping off; type: in vivo; settings: Pythium, 336 h; 5 kg/ha; read-out: disease control rating, Ex. J
Method in brief: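 This cucumber damping-off test used soil and seeds infested with a sand–cereal preparation carrying mycelium of Pythium aphanadermatum. Incubation took place in a growth chamber held at 30° C. for 14 days. Afterwards, the extent of disease was scored as a disease control rating.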

[12] = tested on: Rhizoctonia solani; experiment: Example K cotton blight; type: in vivo; settings: 336 h, 5 kg/ha, read-out: disease control rating, Ex. K
Method: […] Seeds and soil were then inoculated with a mixture of sand, cereal and mycelium of the fungus Rhizoctonia solani, causal agent of cotton blight, and incubated in a growth chamber at 30° C. for 14 days. Disease ratings were then made.

[13] = tested on: Fusarium oxysporum f. sp. cucumerinum; experiment: Example L cucumber wilt; type: in vivo; settings: 336 h, 5 kg/ha, read-out: disease control rating, Ex. L
Method: […] Seeds and soil were then inoculated with a mixture of sand, cereal and mycelium of the fungus Fusarium oxysporum f. sp. cucumerinum, causal agent of cucumber wilt, and incubated in a growth chamber at 30° C. for 14 days. Disease ratings were then made.

[14] = tested on: Sclerotium rolfsii; experiment: Example M southern blight; type: in vivo; settings: Agroathelia rolfsii, 336 h; 5 kg/ha; read-out: disease control rating, Ex. M
Method: […] Seeds and soil were then inoculated with a mixture of sand, cereal and mycelium of the fungus Sclerotium rolfsii, causal agent of sourthern blight, and incubated in a growth chamber at 30° C. for 14 days. Disease ratings were then made.

[15] = tested on: Candida albicans ATCC 11651; experiment: In vitro antifungal MIC, microtiter broth dilution; settings: Candida albicans, ATCC11651, 24 h, read-out: MIC values, C. albicans, 30°, 24 hours
Method: In vitro activity (Table 5) is expressed in terms of the minimal inhibitory concentration (MIC) of the test compound which inhibits the growth of yeasts and fungi.
The target organisms, Candida albicans ATCC 11651 and Aspergillus fumigatus ATCC 28214 are standardized, [V. Bezjak, J. Clinical Micro., 21 509-512 (1984)], to a concentration of 10^7 organisms/ml and maintained at -70° until use. Test compounds are solubilized in dimethyl sulfoxide (DMSO) and diluted in Eagle's Minimum Essential Medium (EMEM) broth to achieve a final concentration of 200 μg/ml. Stock solutions of standard antifungal agents are stored at -70° and diluted in EMEM as required.
The in vitro assay utilizes a microtiter broth dilution technique [L. Polonelli and G. Morace, Mycopathologia, 86, 21-28 (1984)] and C. […] The appropriate wells are inoculated with the required organism (C. albicans at 1×10^4 organisms/ml and A. fumigatus at 5×10^5 organisms/ml) and the assay incubated at 30° for 24 hours.

[16] = tested on: Aspergillus fumigatus ATCC 28214; experiment: In vitro antifungal MIC, microtiter broth dilution; settings: Aspergillus fumigatus, ATCC28214, 24 h, read-out: MIC values, A. fumigatus, 30°, 24 hours

Compound | responders at 150 mg/kg ([1]; ATCC11651, 168 h, day 7) [%] | responders at 150 mg/kg ([1]; ATCC11651, 336 h, day 14) [%] | responders at 150 mg/kg ([1]; ATCC11651, 504 h, day 21) [%] | pest or weed control at 100 ppm [2] [%] | pest or weed control at 100 ppm [3] [%] | pest or weed control at 100 ppm [4] [%] | pest or weed control at 100 ppm [5] [%] | pest or weed control at 100 ppm [6] [%] | pest or weed control at 100 ppm [7] [%] | pest or weed control at 100 ppm [8] [%] | pest or weed control at 100 ppm [9] [%] | pest or weed control at 100 ppm [10] [%] | pest or weed control at 5000 g/ha [11] [%] | pest or weed control at 5000 g/ha [12] [%] | pest or weed control at 5000 g/ha [13] [%] | pest or weed control at 5000 g/ha [14] [%] | MIC [15] [µg/mL] | MIC [16] [µg/mL] | other results
C=C(c1ccc(F)cc1)C(O)(Cn1cncn1)c1ccccc1Cl (stereo not drawn) [Example 646] | 100 | 100 | 70 | 100 | 100 | 95 | 98 | 97 | 61 | 100 | 0 | 99 | 100 | 0 | 0 | 0 | 0.03 (≈ 0.0873 µM) | 0.4 (≈ 1.16 µM) | 
C=C(c1ccc(C(F)(F)F)cc1)C(O)(Cn1cncn1)c1ccc(Cl)cc1 (stereo not drawn) [Example 67] | 100 | 100 | 100 |  |  | 75 |  | 0 | 68 |  | 2 | 1 | 0 | 0 | 0 | 0 | 0.03 (≈ 0.0762 µM) | 100 (≈ 254 µM) | pest or weed control at 20 ppm ([2]; 20 PPM): 58%; pest or weed control at 20 ppm ([3]; 20 PPM): 99%; pest or weed control at 20 ppm ([4]; 20 PPM): 60%; pest or weed control at 20 ppm ([5]; 20 PPM): 85%; pest or weed control at 20 ppm ([6]; read-out: disease control rating, Ex. E, 20 PPM): 0%; pest or weed control at 20 ppm ([7]; 20 PPM): 35%; pest or weed control at 20 ppm ([8]; 20 PPM): 89%
C=C(CN(C)C)C(O)(Cn1cncn1)c1ccc(Cl)cc1Cl (stereo not drawn) [Example 453] | 60 | 40 | 30 | 55 | 32 | 75 | 94 | 0 | 0 | 100 | 0 | 0 | 0 | 0 | 0 | 0 | 1.6 (≈ 4.69 µM) | > 100 | 
C=CCOC(Cn1cncn1)(C(=C)c1ccc(F)cc1)c1ccc(F)cc1 (stereo not drawn) [Example 360] | 100 | 60 | 40 | 88 | 100 | 71 | 86 | 74 | 49 | 93 | 0 | 0 | 0 | 0 | 0 | 0 | 0.8 (≈ 2.18 µM) | 100 (≈ 272 µM) | 
